Patent publication US20230234943A1, “TREX1 INHIBITORS AND USES THEREOF” (Tempest Therapeutics, Inc., priority 2020, published 2023)

Assays:
[1] = target: T1, Human TREX1 (Homo sapiens, UniProt Q9NSU2); test: Gel assay (orthogonal control, IR-680 oligonucleotide strand degradation); assay type: biochemical; settings: polyacrylamide gel, top band intensity; different doses of inhibitor
T1 sequence (Q9NSU2 1-314): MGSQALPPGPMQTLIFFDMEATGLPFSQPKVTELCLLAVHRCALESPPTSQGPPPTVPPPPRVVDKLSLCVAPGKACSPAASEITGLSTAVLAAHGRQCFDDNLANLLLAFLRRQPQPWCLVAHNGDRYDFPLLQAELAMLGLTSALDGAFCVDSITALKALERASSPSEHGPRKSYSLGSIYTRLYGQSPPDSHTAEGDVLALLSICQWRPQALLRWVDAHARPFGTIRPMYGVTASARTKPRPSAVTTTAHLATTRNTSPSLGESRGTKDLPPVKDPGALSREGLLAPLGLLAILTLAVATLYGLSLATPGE
Description: A gel assay was conducted as an orthogonal control to confirm observations of TREX1 inhibitors determined with the fluorescence-based assay. Briefly, compounds were diluted in DMSO at 50× the final concentration. Human TREX1 was diluted to […] (2×concentration) in assay buffer (assay buffer: 20 mM Tris pH 7.7 (Life T-echnologies), 5 mM MgCl2 (Sigma), 0.01% HSA (Sigma), 0.01% Brij-35 (ThermoFisher), 2 mM DTT (Sigma)). Oligonucleotide strand (IR-680-5′[…]-3′) (Custom probe made by Trilink) was diluted in the same assay buffer to a working concentration of 25 nM (final concentration of 12.5 nM). Example 107 was added to […] human TREX1 enzyme in clear 96 well plates. The plate was then incubated at 25° C. for 30 minutes. Twenty five nM oligonucleotide strand was added to the plate, to a final concentration of 30 pM TREX1, 12.5 nM oligo, 1× compound and incubated at 25° C. Fifteen minutes later, the reaction was stopped by removing 10 μl of the reaction and adding it to 20 μl of a solution of 50 mM EDTA/1.5× loading dye buffer (6× Orange DNA loading dye; ThermoFisher) in a 96 well PCR plate. […] The top band was quantified using Image Studio (Licor). […] The top band intensity was measured using the Odyssey scanner (Li-Cor) and ImageStudio software (Li-Cor) and FIG. 1B: Graph representing the percent of top band intensity degradation as a measure of human TREX1 activity. […]

[2] = target: T2, Human TREX1 enzyme (amino acids 1-242) (Homo sapiens, UniProt Q9NSU2); test: Human TREX1 enzymatic assay with dsDNA native oligonucleotide (Picogreen fluorescence); assay type: biochemical; settings: 2 mM dithiothreitol in assay buffer; 50 nM dsDNA oligonucleotide; 30 min preincubation at 25° C.; read-out: TREX1/Human + DTT IC50 AVG
T2 construct: Human TREX1 enzyme (amino acids 1-242)
T2 sequence (Q9NSU2 1-242): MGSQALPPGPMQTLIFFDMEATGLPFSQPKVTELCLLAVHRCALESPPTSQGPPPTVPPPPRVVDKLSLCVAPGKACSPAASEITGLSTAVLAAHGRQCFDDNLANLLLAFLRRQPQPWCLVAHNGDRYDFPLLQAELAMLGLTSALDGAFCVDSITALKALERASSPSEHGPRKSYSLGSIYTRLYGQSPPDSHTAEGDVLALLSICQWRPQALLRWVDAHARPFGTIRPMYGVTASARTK
Summary of the method: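 Remaining dsDNA quantified by Picogreen fluorescence after EDTA quench, with no-enzyme and DMSO wells as controls. Reactions used 50 nM annealed oligonucleotide for 5–15 min at 25 °C, after a 30 min compound–enzyme preincubation (0.8–0.16 nM TREX1; 2% DMSO; pH 7.7 Tris, 5 mM MgCl2).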

Row | Compound | inhibition of human TREX1 / DNA degradation in gel assay (FIGS. 1A and 1B) [1] | IC50 [2] | melting point
1 | COc1cc(-c2nc3ccc(N4CCN(S(C)(=O)=O)CC4)cc3n2C2CCOC2)cc(O)c1O (stereo not drawn) [Example 107, 3-methoxy-5-(6-(4-(methylsulfonyl)piperazin-1-yl)-1-(tetrahydrofuran-3-yl)-1H-benzo[d]imidazol-2-yl)benzene-1,2-diol] | inhibits human TREX1 and prevents DNA degradation | 1 to 10 µM | 
2 | COc1cc(-c2nc3ccccc3n2C2CCC2)c(C2CC2)c(O)c1O [Example 174, 4-(1-cyclobutyl-1H-benzo[d]imidazol-2-yl)-3-cyclopropyl-6-methoxybenzene-1,2-diol] |  | 10 to 100 µM | 209 °C
3 | COc1ccc2[nH]c(-c3cc(OC)c(O)c(O)c3C)nc2c1 [Example 175, 6-methoxy-4-(5-methoxy-1H-benzo[d]imidazol-2-yl)-3-methylbenzene-1,2-diol] |  | 10 to 100 µM | 249.1 °C
4 | COc1cc(-c2nc3ccc(S(C)(=O)=O)cc3n2C2(C)COC2)c(F)c(O)c1O [Example 178, 3-fluoro-4-[6-methanesulfonyl-1-(3-methyloxetan-3-yl)-1H-1,3-benzodiazol-2-yl]-6-methoxybenzene-1,2-diol] |  | 1 to 10 µM | 257.6 °C
5 | COc1cc(-c2nc3ccc(C#N)cc3n2C2(C)COC2)c(F)c(O)c1O [Example 179, 2-(2-fluoro-3,4-dihydroxy-5-methoxyphenyl)-1-(3-methyloxetan-3-yl)-1H-1,3-benzodiazole-6-carbonitrile] |  | 0.1 to 1 µM | 209 °C
6 | COc1cc(-c2nc3ccc(C(N)=O)cc3n2C2(C)COC2)c(F)c(O)c1O [Example 180, 2-(2-fluoro-3,4-dihydroxy-5-methoxyphenyl)-1-(3-methyloxetan-3-yl)-1H-1,3-benzodiazole-6-carboxamide] |  | ≤ 0.1 µM | 170.4 °C
7 | COc1cc(-c2nc3cc(NC(C)=O)ccc3n2C2(C)COC2)c(F)c(O)c1O [Example 312, N-(2-(2-fluoro-3,4-dihydroxy-5-methoxyphenyl)-1-(3-methyloxetan-3-yl)-1H-benzo[d]imidazol-5-yl)acetamide] |  | ≤ 0.1 µM | 
8 | COc1cc(-c2nc3cc(NC(C)=O)ccc3n2C2CCC2)c(F)c(O)c1O [Example 313, N-(1-cyclobutyl-2-(2-fluoro-3,4-dihydroxy-5-methoxyphenyl)-1H-benzo[d]imidazol-5-yl)acetamide] |  | 0.1 to 1 µM | 
9 | COc1cc(-c2nc3ccccc3n2C2(C)COC2)c(C(F)(F)F)c(O)c1O [Example 315, 6-methoxy-4-(1-(3-methyloxetan-3-yl)-1H-benzo[d]imidazol-2-yl)-3-(trifluoromethyl)benzene-1,2-diol] |  | 10 to 100 µM | 
10 | CNc1ccc2c(c1)nc(-c1cc(OC)c(O)c(O)c1F)n2C1(C)COC1 [Example 316, 3-fluoro-6-methoxy-4-(5-(methylamino)-1-(3-methyloxetan-3-yl)-1H-benzo[d]imidazol-2-yl)benzene-1,2-diol] |  | 0.1 to 1 µM | 
11 | CNc1ccc2nc(-c3cc(OC)c(O)c(O)c3F)n(C3(C)COC3)c2c1 [Example 317, 3-fluoro-6-methoxy-4-(6-(methylamino)-1-(3-methyloxetan-3-yl)-1H-benzo[d]imidazol-2-yl)benzene-1,2-diol] |  | 0.1 to 1 µM | 
12 | COc1cc(-c2nc3ccc(Nc4ccccc4)cc3n2C2(C)COC2)c(F)c(O)c1O [Example 318, 3-fluoro-6-methoxy-4-(1-(3-methyloxetan-3-yl)-6-(phenylamino)-1H-benzo[d]imidazol-2-yl)benzene-1,2-diol] |  | 0.1 to 1 µM | 
13 | COc1cc(-c2nc3cc(NCCO)ccc3[nH]2)cc(O)c1O [Example 319, 5-(5-((2-hydroxyethyl)amino)-1H-benzo[d]imidazol-2-yl)-3-methoxybenzene-1,2-diol] |  | 1 to 10 µM | 
14 | COc1cc(-c2nc3ccccc3n2C2CN(C)C2)c(C)c(O)c1O [Example 320, 6-methoxy-3-methyl-4-(1-(1-methylazetidin-3-yl)-1H-benzo[d]imidazol-2-yl)benzene-1,2-diol] |  | > 100 µM | 
15 | COc1cc(-c2nc3ccccc3n2C2CN(C(C)=O)C2)c(C)c(O)c1O [Example 321, 1-(3-(2-(3,4-dihydroxy-5-methoxy-2-methylphenyl)-1H-benzo[d]imidazol-1-yl)azetidin-1-yl)ethan-1-one] |  | > 100 µM | 
16 | COc1cc(-c2nc3ccccc3n2C2CN(S(C)(=O)=O)C2)c(C)c(O)c1O [Example 322] |  | 10 to 100 µM | 
17 | COc1c(O)c(O)c(C)c(-c2nc3ccccc3n2C2CCC2)c1F [Example 323, 4-(1-cyclobutyl-1H-benzo[d]imidazol-2-yl)-5-fluoro-6-methoxy-3-methylbenzene-1,2-diol] |  | 1 to 10 µM | 
18 | COc1cc(-c2nc3ccccc3n2C2CC2)c(C)c(O)c1O [Example 324, 4-(1-cyclopropyl-1H-benzo[d]imidazol-2-yl)-6-methoxy-3-methylbenzene-1,2-diol] |  | 1 to 10 µM | 
19 | CNS(=O)(=O)c1ccc2nc(-c3cc(OC)c(O)c(O)c3F)n(C3(C)COC3)c2c1 [Example 325, 2-(2-fluoro-3,4-dihydroxy-5-methoxyphenyl)-N-methyl-1-(3-methyloxetan-3-yl)-1H-benzo[d]imidazole-6-sulfonamide] |  | 10 to 100 µM | 
20 | COc1cc(-c2nc3ncccc3n2C2(C)COC2)c(F)c(O)c1O [Example 326, 3-fluoro-6-methoxy-4-(1-(3-methyloxetan-3-yl)-1H-imidazo[4,5-b]pyridin-2-yl)benzene-1,2-diol] |  | 1 to 10 µM | 
21 | COc1cc(-c2nc3ccccc3n2C2CCC2)c(F)c(O)c1O [Example 327, 4-(1-cyclobutyl-1H-benzo[d]imidazol-2-yl)-3-fluoro-6-methoxybenzene-1,2-diol] |  | 1 to 10 µM | 
22 | COc1cc(-c2nc3ccccc3n2C23CC(C2)C3)c(F)c(O)c1O [Example 328, 4-(1-(bicyclo[1.1.1]pentan-1-yl)-1H-benzo[d]imidazol-2-yl)-3-fluoro-6-methoxybenzene-1,2-diol] |  | ≤ 0.1 µM | 
23 | COc1cc(-c2nc3ccccc3n2C2(C)CC2)c(F)c(O)c1O [Example 329, 3-fluoro-6-methoxy-4-(1-(1-methylcyclopropyl)-1H-benzo[d]imidazol-2-yl)benzene-1,2-diol] |  | 0.1 to 1 µM | 
24 | COc1cc(-c2nc3ccccc3n2C(C)(C)C)c(F)c(O)c1O [Example 330, 4-(1-(tert-butyl)-1H-benzo[d]imidazol-2-yl)-3-fluoro-6-methoxybenzene-1,2-diol] |  | 0.1 to 1 µM | 
25 | COc1cc(-c2nc3ccccc3n2-c2ccccc2)c(F)c(O)c1O [Example 331, 3-fluoro-6-methoxy-4-(l-phenyl-1H-1,3-benzodiazol-2-yl)benzene-1,2-diol] |  | 1 to 10 µM | 
26 | Oc1cc(-c2nc3ccccc3n2C2CCC2)cc(OC(F)F)c1O [Example 333, 5-(1-cyclobutyl-1H-benzo[d]imidazol-2-yl)-3-(difluoromethoxy)benzene-1,2-diol] |  | > 100 µM | 
27 | COc1cc(-c2nc3cc(O)ccc3n2C2CCC2)c(C)c(O)c1O [Example 334, 4-(1-cyclobutyl-5-hydroxy-1H-benzo[d]imidazol-2-yl)-6-methoxy-3-methylbenzene-1,2-diol] |  | 0.1 to 1 µM | 
